For orientation: Cmax means the peak of the concentration-time curve. As usually defined, the half-life is how long it takes for the measured level to halve. Read a low half-life as fast loss. One may read the AUC(0-inf) as total exposure, with the tail of the curve extrapolated. A low value points to less exposure. The term IC50 denotes the concentration that gives 50% inhibition.

The values below come from ChEMBL document CHEMBL5352398 (Eur J Med Chem, 2022).

A short description of series [1]: Cmax in Sprague-Dawley rat at 5 mg/kg, po and measured upto 24 hrs by LC-MS/MS analysis. On the set-up: dose 5 mg/kg, time < 24 hrs, route po. As to conditions: in vivo. Type of series: ADME, organism-based.
A short description of series [2]: Subacute toxicity in Kunming mouse assessed as ruffled fur at 50 mg/kg,po for 14 days. Type of series: organism-based. As to conditions: in vivo, 336 h, time 14 day.
Series [3] can be described thus: Subacute toxicity in Kunming mouse assessed as anorexia at 50 mg/kg,po for 14 days. Type of series: organism-based. As to conditions: in vivo, 336 h, time 14 day.
Series [4] can be described thus: Half life in Sprague-Dawley rat at 5 mg/kg, iv and measured upto 24 hrs by LC-MS/MS analysis. Type of series: ADME, organism-based. As to conditions: in vivo.
A short description of series [5]: Hepatotoxicity in Kunming mouse assessed as increase in AST level in serum at 50 mg/kg,po for 14 days in presence of BSO. Type of series: toxicity, organism-based. As to conditions: in vivo, 336 h, time 14 day.
The nature of series [6]: Toxicity in Kunming mouse assessed as inflammatory infiltration in kidney at 50 mg/kg, po administered and measured after 14 days by HE staining. The conditions noted are these: in vivo, 336 h, time 14 day. Type of series: organism-based.
For another series, the system named is HepG2. In words: Cytotoxicity against human HepG2 cells assessed as reduction in cell viability upto 400 uM incubated for 24 hrs by MTT assay. Type of series: toxicity, cell-based. As to conditions: hepg2, 24 h.
A short description of series [7]: Renal toxicity in Kunming mouse assessed as effect on BUN level at 50 mg/kg,po for 14 days. Type of series: organism-based. As to conditions: in vivo, 336 h, time 14 day.
The nature of series [8]: Half life in Sprague-Dawley rat at 5 mg/kg, po and measured upto 24 hrs by LC-MS/MS analysis. As to conditions: in vivo. Type of series: ADME, organism-based.
For another series, the system named is Mus musculus. Briefly: Anti-hyperuricemic activity against potassium oxonate induced hyperuricemia in Kunming mouse model assessed as decrease in serum urate level at 4 mg/kg, po and measured after 3 hrs. Type of series: functional, organism-based.
Series [9] can be described thus: Toxicity in Kunming mouse assessed as appearance of normal tubular structure in kidney at 50 mg/kg, po administered and measured after 14 days by HE staining. Type of series: organism-based. The conditions noted are these: in vivo, 336 h, time 14 day.
A short description of series [10]: Subacute toxicity in Kunming mouse assessed as body weight change at 50 mg/kg,po for 14 days. Type of series: organism-based. The conditions noted are these: in vivo, 336 h, time 14 day.
A short description of series [11]: AUC(0 to infinity) in Sprague-Dawley rat at 5 mg/kg, po and measured upto 24 hrs by LC-MS/MS analysis. On the set-up: time < 24 hrs, dose 5 mg/kg, route po. As to conditions: in vivo. Type of series: ADME, organism-based.
The target of series [12] is T1, Solute carrier family 22 member 6 (Homo sapiens, UniProt Q4U2R8).
T1 sequence (Q4U2R8 whole entry): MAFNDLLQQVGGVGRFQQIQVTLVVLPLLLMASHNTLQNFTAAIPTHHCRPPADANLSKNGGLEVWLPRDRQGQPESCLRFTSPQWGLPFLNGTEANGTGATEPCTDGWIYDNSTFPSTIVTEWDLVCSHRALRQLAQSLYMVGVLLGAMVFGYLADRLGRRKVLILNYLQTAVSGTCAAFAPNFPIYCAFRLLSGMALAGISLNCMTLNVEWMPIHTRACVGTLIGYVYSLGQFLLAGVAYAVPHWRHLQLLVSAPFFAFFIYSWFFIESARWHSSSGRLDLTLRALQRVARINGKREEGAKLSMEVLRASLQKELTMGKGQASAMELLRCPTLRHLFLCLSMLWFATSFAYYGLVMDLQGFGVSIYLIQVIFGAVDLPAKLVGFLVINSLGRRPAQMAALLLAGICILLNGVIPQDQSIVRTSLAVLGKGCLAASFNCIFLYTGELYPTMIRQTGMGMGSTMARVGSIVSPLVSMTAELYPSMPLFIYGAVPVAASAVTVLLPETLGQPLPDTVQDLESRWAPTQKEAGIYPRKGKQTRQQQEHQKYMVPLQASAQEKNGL
Briefly: Inhibition of OAT1 (unknown origin) transfected in HEK293 cells assessed as inhibition of 6-CFL uptake preincubated for 30 mins followed by 6-CFL addition and measured for 15 mins by fluorescence based microplate reader analysis. Type of series: cell-based.

Series [13] in a line: Subacute toxicity in Kunming mouse assessed as clonic convulsion at 50 mg/kg,po for 14 days. As to conditions: in vivo, 336 h, time 14 day. Type of series: organism-based.
Series [14] is described as follows: Cmax in Sprague-Dawley rat at 5 mg/kg, iv and measured upto 24 hrs by LC-MS/MS analysis. On the set-up: time < 24 hrs, dose 5 mg/kg, route iv. Type of series: ADME, organism-based. The conditions noted are these: in vivo.

Molecules are shown by their SMILES. The source made the active and inactive calls. No cut-off for these calls is given here.

Take `CCc1oc2ccccc2c1C(=O)c1cc(Br)c(O)c(Br)c1` [BENZBROMARONE]: the Cmax in [1] was determined as 4250 ng/mL; in series [14] it was 14700 ng/mL. Besides, the Activity entry in [2] is “Non-Toxic”; in series [3] it was “Non-Toxic”; in [5] it was “Non-Toxic”; in [6], “Toxic”; in the series with HepG2, “Toxic”; in series [7] it was “Non-Toxic”. Moreover, the Activity result in series [9], in [10] and in series [13] was “Non-Toxic” in each case. In addition, the half-life in series [4] was 3.03 h; in series [8], 1.79 h. In addition, the result with Mus musculus was Active. The AUC(0-inf) in series [11] was found to be 11100 ng·h/mL. Besides, the IC50 in [12] stood at 2.12 µM.
